Source: patent US20240024273A1, “TOPICAL ADMINISTRATION OF 2-(DIETHYLAMINO)ETHYL 2-(4-ISOBUTYLPHENYL)PROPRIONATE FOR TREATMENT OF DISEASES” (TECHFIELDS PHARMA CO., LTD., priority 2020, published 2024)

Tests used:
[1] = tested on: osteoarthritis of the knee; experiment: Second Phase 2 study: WOMAC (VAS) pain subscale score; assay type: in vivo, human
Description: This is a Phase 2, multicenter, randomized, double blind (within dose), Ibuprofen-placebo controlled, parallel group, dose range finding study to evaluate the efficacy, safety, and PK of 2-(diethylamino)ethyl 2-(4-isobutylphenyl)propionate spray in adult subjects with clinically symptomatic OA of the knee. For subjects with bilateral knee pain, both knees will be treated, but the most symptomatic knee (ie, the most painful knee as measured by the Western Ontario and McMaster University Osteoarthritis Index [WOMAC® 3.1] pain subscale score at Screening) will be designated as the target knee for efficacy analyses. For subjects with unilateral knee pain, only the symptomatic (target) knee will be treated.
(§1) The VAS version of the WOMAC will be used for the Primary and Secondary Efficacy Endpoints. Efficacy endpoints will be assessed at Screening and Baseline (Day 1) and at the Week 2, Week 4, Week 8, and Week 12/EOS visits.
The Primary Efficacy Endpoint is the change from Baseline in the WOMAC (VAS) pain subscale score for the target knee at […] of treatment.
(§2) 4.9.2. Secondary Efficacy Endpoints: • 1. Change from Baseline in the WOMAC (VAS) pain subscale score for the target knee at 2, 8, and 12 weeks of treatment; • 2. Change from Baseline in the WOMAC (VAS) stiffness subscale scores for the target knee and WOMAC (VAS) functional ability subscale scores at 2, 4, 8, and 12 weeks of treatment; • 3. Change from Baseline in the overall WOMAC (VAS) score at 2, 4, 8, and 12 weeks of treatment; • 4. Subject's global assessment of disease status of the target knee at 2, 4, 8, and 12 weeks of treatment; • 5. Subject's global assessment of response to therapy of the target knee at 2, 4, 8, and 12 weeks of treatment; • 6. Amount of rescue medication (acetaminophen) consumed per day for target knee pain.
The Primary Efficacy Endpoint is change from Baseline in the WOMAC (VAS) pain subscale score for the target knee at 4 weeks of treatment, and will be analyzed using an analysis of covariance (ANCOVA). Treatment will be included as a fixed class effect and WOMAC Baseline pain subscale score as covariates. The primary comparisons of interest will be the difference between active Group A (4.375 mg 2-(diethylamino)ethyl 2-(4-isobutylphenyl)propionate/knee) and combined placebo, active Group B (8.75 mg 2-(diethylamino)ethyl 2-(4-isobutylphenyl)propionate/knee) and combined placebo, and active Group C (17.5 mg 2-(diethylamino)ethyl 2-(4-isobutylphenyl)propionate/knee) and combined placebo.

[2] = tested on: osteoarthritis of the knee; experiment: Second Phase 2 study: WOMAC stiffness subscale score; assay type: in vivo, human
Description: For subjects with bilateral knee pain, both knees will be treated, but the most symptomatic knee (ie, the most painful knee as measured by the Western Ontario and McMaster University Osteoarthritis Index [WOMAC® 3.1] pain subscale score at Screening) will be designated as the target knee for efficacy analyses. For subjects with unilateral knee pain, only the symptomatic (target) knee will be treated.
as §1, §2
The Secondary Efficacy Endpoints, change from Baseline in the WOMAC subscale scores for pain, stiffness, and functional ability, and overall WOMAC score at 2, 4, 8, and 12 weeks of treatment, will be analyzed using the same methods as for the Primary Efficacy Endpoint.

[3] = 17.5 mg/knee BID, Week 12, first 130 subjects
[4] = 4.375 mg/knee BID (n = 23), first 130 subjects
[5] = 8.75 mg/knee BID (n = 24), first 130 subjects
[6] = 17.5 mg/knee BID (n = 19), first 130 subjects
[7] = Week 12, 4.375 mg/knee BID (n = 23), first 130 subjects
[8] = Week 12, 8.75 mg/knee BID (n = 24), first 130 subjects
[9] = Week 12, 17.5 mg/knee BID (n = 19), first 130 subjects
[10] = all subjects, 4.375 mg/knee BID, n = 49, Week 12
[11] = all subjects, 8.75 mg/knee BID, n = 54, Week 12
[12] = all subjects, 17.5 mg/knee BID, n = 52, Week 12

`CCN(CC)CCOC(=O)C(C)c1ccc(CC(C)C)cc1` (centres unmarked) [2-(diethylamino)ethyl 2-(4-isobutylphenyl)propionate] was tested, and the “WOMAC pain, difference from oral ibuprofen (3×400 mg/day)” value [1, 3] was −14.5 mm, the “WOMAC pain, difference from placebo” value [1, 3] was −15.0 mm and the “WOMAC Pain Subscale Score, Day 1, Avg.” value ([1]; Avg. of all patients, blinded, Middle Dose (4 spray/knee, 17.5 mg/knee) Cohort, Day 1) was 61.0. For the same compound, the “WOMAC Pain Subscale Score, Follow-up, Avg.” value ([1]; Avg. of all patients, blinded, Middle Dose (4 spray/knee, 17.5 mg/knee) Cohort, Follow-up) was 38.9, the “WOMAC Pain Subscale Score, Week 2, Avg.” value ([1]; Avg. of all patients, blinded, Middle Dose (4 spray/knee, 17.5 mg/knee) Cohort, Week 2) was 46.0 and the “WOMAC Pain Subscale Score, Week 4, Avg.” value ([1]; Avg. of all patients, blinded, Middle Dose (4 spray/knee, 17.5 mg/knee) Cohort, Week 4) was 40.5. The “WOMAC Pain Subscale Score, Week 8, Avg.” value ([1]; Avg. of all patients, blinded, Middle Dose (4 spray/knee, 17.5 mg/knee) Cohort, Week 8) was 35.9, the “WOMAC Pain Subscale Score, Week 12, Avg.” value ([1]; Avg. of all patients, blinded, Middle Dose (4 spray/knee, 17.5 mg/knee) Cohort, Week 12) was 34.5 and the “WOMAC Pain Subscale Scores, Baseline (LS Mean)” value [1, 4] was 60.0 mm. The “WOMAC Pain Subscale Scores, Baseline (LS Mean)” value [1, 5] was 61.0 mm, the “WOMAC Pain Subscale Scores, Baseline (LS Mean)” value [1, 6] was 64.1 mm and the “WOMAC Pain Subscale Scores, % of improvement from Oral Ibuprofen” value [1, 7] was −9.6%. The “WOMAC Pain Subscale Scores, % of improvement from Placebo” value [1, 7] was −8.7%, the “WOMAC Pain Subscale Scores, % of improvement from baseline” value [1, 7] was −41.8% and the “WOMAC Pain Subscale Scores, Changes from Baseline (LS Mean)” value (“WOMAC Pain Subscale Scores, Changes” below) [1, 7] was −25.7 mm. For the same compound, the “WOMAC Pain Subscale Scores, Different from oral ibuprofen (LS Mean)” value [1, 7] was −4.0 mm, the “WOMAC Pain Subscale Scores, Different from placebo (LS Mean)” value [1, 7] was −4.3 mm and the “WOMAC Pain Subscale Scores, Week 12 (LS Mean)” value [1, 7] was 34.3 mm. For the same compound, the “WOMAC Pain Subscale Scores, % of improvement from Oral Ibuprofen” value [1, 8] was −13.2%, the “WOMAC Pain Subscale Scores, % of improvement from Placebo” value [1, 8] was −12.3% and the “WOMAC Pain Subscale Scores, % of improvement from baseline” value [1, 8] was −45.4%. For the same compound, the “WOMAC Pain Subscale Scores, Changes” value [1, 8] was −27.7 mm, the “WOMAC Pain Subscale Scores, Different from oral ibuprofen (LS Mean)” value [1, 8] was −6.1 mm and the “WOMAC Pain Subscale Scores, Different from placebo (LS Mean)” value [1, 8] was −6.6 mm. For the same compound, the “WOMAC Pain Subscale Scores, Week 12 (LS Mean)” value [1, 8] was 33.3 mm, the “WOMAC Pain Subscale Scores, % of improvement from Oral Ibuprofen” value [1, 9] was −24.3% and the “WOMAC Pain Subscale Scores, % of improvement from Placebo” value [1, 9] was −23.4%. For the same compound, the “WOMAC Pain Subscale Scores, % of improvement from baseline” value [1, 9] was −56.5%, the “WOMAC Pain Subscale Scores, Changes” value [1, 9] was −36.2 mm and the “WOMAC Pain Subscale Scores, Different from oral ibuprofen (LS Mean)” value [1, 9] was −14.5 mm. The “WOMAC Pain Subscale Scores, Different from placebo (LS Mean)” value [1, 9] was −15.0 mm, the “WOMAC Pain Subscale Scores, Week 12 (LS Mean)” value [1, 9] was 27.9 mm and the “WOMAC Pain Subscale Scores, % of improvement from Oral Ibuprofen” value [1, 10] was −0.7%. The “WOMAC Pain Subscale Scores, % of improvement from Placebo” value [1, 10] was −5.2%, the “WOMAC Pain Subscale Scores, % of improvement from baseline” value [1, 10] was −41.9% and the “WOMAC Pain Subscale Scores, Changes” value [1, 10] was −25.6 mm. For the same compound, the “WOMAC Pain Subscale Scores, Week 12 (LS Mean)” value [1, 10] was 35.5 mm, the “WOMAC Pain Subscale Scores, % of improvement from Oral Ibuprofen” value [1, 11] was −4.9% and the “WOMAC Pain Subscale Scores, % of improvement from Placebo” value [1, 11] was −9.4%. The “WOMAC Pain Subscale Scores, % of improvement from baseline” value [1, 11] was −46.1%, the “WOMAC Pain Subscale Scores, Changes” value [1, 11] was −28.6 mm and the “WOMAC Pain Subscale Scores, Different from oral ibuprofen (LS Mean)” value [1, 11] was −3.2 mm. The “WOMAC Pain Subscale Scores, Different from placebo (LS Mean)” value [1, 11] was −6.0 mm, the “WOMAC Pain Subscale Scores, Week 12 (LS Mean)” value [1, 11] was 33.4 mm and the “WOMAC Pain Subscale Scores, % of improvement from Oral Ibuprofen” value [1, 12] was −9.8%. The “WOMAC Pain Subscale Scores, % of improvement from Placebo” value [1, 12] was −14.3%, the “WOMAC Pain Subscale Scores, % of improvement from baseline” value [1, 12] was −51.0% and the “WOMAC Pain Subscale Scores, Changes” value [1, 12] was −31.7 mm. For the same compound, the “WOMAC Pain Subscale Scores, Different from oral ibuprofen (LS Mean)” value [1, 12] was −6.3 mm, the “WOMAC Pain Subscale Scores, Different from placebo (LS Mean)” value [1, 12] was −9.1 mm and the “WOMAC Pain Subscale Scores, Week 12 (LS Mean)” value [1, 12] was 30.5 mm. The “WOMAC stiffness, difference from oral ibuprofen” value [2, 3] was −12.4 mm, the “WOMAC stiffness, difference from placebo” value [2, 3] was −19.1 mm and the “WOMAC Joint Stiffness Subscale Score, Day 1, Avg.” value ([2]; Avg. of all patients (blinded), Low Dose (2 spray/knee, 8.75 mg/knee) Cohort, Day 1) was 64.2. For the same compound, the “WOMAC Joint Stiffness Subscale Score, Week 2, Avg.” value ([2]; Avg. of all patients (blinded), Low Dose (2 spray/knee, 8.75 mg/knee) Cohort, Week 2) was 52.5, the “WOMAC Joint Stiffness Subscale Score, Week 4, Avg.” value ([2]; Avg. of all patients (blinded), Low Dose (2 spray/knee, 8.75 mg/knee) Cohort, Week 4) was 45.7 and the “WOMAC Joint Stiffness Subscale Score, Week 8, Avg.” value ([2]; Avg. of all patients (blinded), Low Dose (2 spray/knee, 8.75 mg/knee) Cohort, Week 8) was 42.3. For the same compound, the “WOMAC Joint Stiffness Subscale Score, Week 12, Avg.” value ([2]; Avg. of all patients (blinded), Low Dose (2 spray/knee, 8.75 mg/knee) Cohort, Week 12) was 41.8, the “WOMAC Stiffness Subscale Scores, Baseline (LS Mean)” value [2, 4] was 50.2 mm and the “WOMAC Stiffness Subscale Scores, Baseline (LS Mean)” value [2, 5] was 52.4 mm. The “WOMAC Stiffness Subscale Scores, Baseline (LS Mean)” value [2, 6] was 57.6 mm, the “WOMAC Stiffness Subscale Scores, % of improvement from Oral Ibuprofen” value [2, 7] was 0.6% and the “WOMAC Stiffness Subscale Scores, % of improvement from Placebo” value [2, 7] was −9.7%. For the same compound, the “WOMAC Stiffness Subscale Scores, % of improvement from baseline” value [2, 7] was −35.9%, the “WOMAC Stiffness Subscale Scores, Changes from Baseline (LS Mean)” value [2, 7] was −18.0 mm and the “WOMAC Stiffness Subscale Scores, Different from placebo (LS Mean)” value [2, 7] was −4.0 mm. The “WOMAC Stiffness Subscale Scores, Week 12 (LS Mean)” value [2, 7] was 32.2 mm and the “WOMAC Stiffness Subscale Scores, % of improvement from Oral Ibuprofen” value [2, 8] was −2.4%.
